Consider 30 substances from patent US11479587B2, “Cationic intrinsically disordered antimicrobial peptides” (priority 2016, dated 2022).

Marks after values point to notes of the source that are not given here. No end group written: not given here. *: point of attachment. Biotin = O=C1N[C@H]2[C@H](CS[C@H]2CCCCC(=O)*)N1

One experiment has as its system P. aeruginosa ATCC 10145. As to the kind of experiment: CFU-assay, P. aeruginosa-cidal activity. It counts as cell-based, Pseudomonas aeruginosa. Conditions: pH 5.0, 0.25% glucose.
“Biotin-GRHGSGLGHSSSHGQHGSGSGR [Biotin-HR 1-18]” returned an MBC100 of more than 300 µg/mL.
For the substance “GHHGGGGGHGGGHGGHGGGGGH (Modified peptide derived from human hornerin (HR 1-18 G+H)) [HR 1-18 G + H]”, the MBC90 is less than 0.006 µg/mL and the MBC100 is 0.09 µg/mL.
The matching figures for “GRGGSGLGGSSSGGQGGSGSGRSSSRGPY (Modified peptide derived from human hornerin (HR 1-17 4H-4G all H vs G))”: 75 µg/mL and more than 300 µg/mL.
The matching figures for “GRHGGGGGHGGGHGGHGGGGGR (Modified peptide derived from human hornerin (HR 1-18 L-G/Q-G/6S-6G))”: 0.038 µg/mL and 0.15 µg/mL.
The corresponding values for “GRHGSGGGHSSSHGGHGSGSGR (Modified peptide derived from human hornerin (HR 1-18 L-G/Q-G))” are 0.038 µg/mL and 0.15 µg/mL.

The same experiment, now with this note: pH 5.5, 0.25% glucose.
Take “GHHGGGGGHGGGHGGHGGGGGH (Modified peptide derived from human hornerin (HR 1-18 G+H)) [HR 1-18 G + H]”: the MBC90 was less than 0.006 µM and the MBC100 is 0.09 µM.
The corresponding values for “GHHGGHGGHGHGH (Synthetic cationic intrinsically disordered antimicrobial peptide (GH13))” are 0.030 µM and 0.12 µM.
The corresponding values for “GKKGGKGGKGKGK (Synthetic cationic intrinsically disordered antimicrobial peptide (K-GR13))” are 0.063 µM and 2.0 µM.
The matching figures for GOOGGOGGOGOGO [Orn-GR13]: 0.034 µM and 1.1 µM.
In turn, “GRHGSGLGHSSSH (Peptide derived from human hornerin (HR 1-37 HRNR 2656-2668)) [HR 1-37 HRNR2656-2668]” showed an MBC90 of 9.38 µg/mL and an MBC100 of more than 300 µg/mL.
As to “GRHGSGSGHSSSHGQHGSGSGR (Peptide derived from human hornerin (HRNR 2186-2207)) [HRNR2186-2207]”, the MBC100 is 4.7-9.37* μg/ml.
Consider “GRHGSGSGQSSSYSPYGSGSGWSSSR (Peptide derived from human hornerin (HRNR 2422-2447)) [HRNR2422-2447]”, for which the MBC100 is more than 300 µg/mL.
In turn, “GSRTAGRRGSGH (Peptide derived from human filaggrin-2 (FLG-2 2094-2105)) [FLG-22094-2105]” registered an MBC100 of more than 300 µg/mL.
The substance “HAHSGHGQSTQR (Peptide derived from human filaggrin-2 (FLG-2 2082-2093)) [FLG-22082-2093]” yielded an MBC90 of 0.15 µg/mL and an MBC100 of 2.35 µg/mL.
The matching figures for “HAHSGHGQSTQRGSR (Peptide derived from human filaggrin-2 (FLG-2 2082-2096)) [FLG-22082-2096]”: 0.15 µg/mL and 1.18 µg/mL.
The matching figures for “HAHYGYGQSTQRGSRTTGRRGSGH (Peptide derived from human filaggrin-2 (FLG-2 2232-2255)) [FLG-22232-2255]”: 0.075 µg/mL and 0.59 µg/mL.
The substance “HGH (Synthetic cationic intrinsically disordered antimicrobial peptide (GH3))” had an MBC90 of 200 µM and an MBC100 of more than 860 µM.
The matching figures for “HGHGH (Synthetic cationic intrinsically disordered antimicrobial peptide (GH5))”: 6.0 µM and 138 µM.
The matching figures for “HGHGHGH (Synthetic cationic intrinsically disordered antimicrobial peptide (GH7))”: 0.25 µM and 7.2 µM.

Still in this experiment, the particulars now being: pH 5.5, 0.25% glucose; listed as HR 1-18 G+H.
The substance “GHHGGGGGHGGGHGGHGGGGGH (Modified peptide derived from human hornerin (HR 1-18 G+H)) [HR 1-18 G + H]” had an MBC90 of less than 0.019 µg/mL and an MBC100 of 0.075 µg/mL.

Staying with this experiment, now noted: pH 5.5, 1% TSB.
As to “GGSRSGQSSRGERHGSSSGSSSH (Modified peptide derived from human hornerin (HR 1-11 H1-GH2606G))) [HR 1-11 H1-G H2606G]”, the MBC90 is >300* μg/ml and the MBC100 is >300* μg/ml.
Turning to “GRHGSGLGHSSSHGQH (Peptide derived from human hornerin (HR 1-25 HRNR 2656-2671)) [HR 1-25 HRNR2656-2671]”, the MBC90 turned out to be 0.3 µg/mL and the MBC100 came out at 4.7 µg/mL.
“GRHGSGSGQSSSYGPYGSGSGWSSSRGPY (Peptide derived from human hornerin (HRNR 1952-1980)) [HRNR1952-1980]” returned an MBC100 of more than 300 µg/mL.
On the same count and under the same terms, the figure for “GRHGSGSGQSSSYGPYRSGSGWSSSRGPY (Peptide derived from human hornerin (HRNR 1013-1041)) [HRNR1013-1041]” is more than 300 µg/mL; for “GRHGSGSGQSSSYSPYGSGSGWSSSRGPY (Peptide derived from human hornerin (HRNR 2422-2450)) [HRNR2422-2450]” it is more than 300 µg/mL.
On to “GSGSRQSLSYGRHGSGSGR (Modified peptide derived from human hornerin (HR 2-4L HRNR 1132-1150 P1139L)) [HR 2-4L HRNR1132-1150 P1139L]”, for which the MBC90 came to 75 µg/mL and the MBC100 was more than 300 µg/mL.
On to “GSGSRQSPSHGRHGSGSGR (Modified peptide derived from human hornerin (HR 2-4H HRNR 1132-1150 Y1141H)) [HR 2-4H HRNR1132-1150 Y1141H]”, for which the MBC90 came to 75 µg/mL and the MBC100 is more than 300 µg/mL.
The substance “GSGSRQSPSRGRHGSGSGR (Modified peptide derived from human hornerin (HR 2-4R HRNR 1132-1150 Y1141R)) [HR 2-4R HRNR1132-1150 Y1141R]” had an MBC100 of more than 300 µg/mL.
With “GSGSRQSPSYGRHGSGSGRSSSSGQH (Peptide derived from human hornerin (HR 2-11 HRNR 1132-1157)) [HR 2-11 HRNR1132-1157]”, the MBC90 worked out at 37.5 µg/mL and the MBC100 is more than 300 µg/mL.
The matching figures for “GSGSRQSPSYGRQGSGSGR (Modified peptide derived from human hornerin (HR 2-4Q HRNR 1132-1150 H1144Q)) [HR 2-40 HRNR1132-1150 H1144Q]”: more than 300 µg/mL and more than 300 µg/mL.
The corresponding values for “GSGSRQSSGHGRQGSGSGQ (Modified peptide derived from human hornerin (HR 1-16 HRNR 2633-2651)) [HR 1-16 HRNR2633-2651]” are more than 300 µg/mL and more than 300 µg/mL.
The corresponding values for “GSGSRQSSSYGRHGSGSGR (Modified peptide derived from human hornerin (HR 2-4S HRNR 1132-1150 P1139S)) [HR 2-4S HRNR1132-1150 P1139S]” are 150 µg/mL and more than 300 µg/mL.

The experiment is the same for the next values; noted with them: pH 7.0, 0.25% glucose.
Substance “GHHGGGGGHGGGHGGHGGGGGH (Modified peptide derived from human hornerin (HR 1-18 G+H)) [HR 1-18 G + H]” yielded an MBC90 of more than 300 µg/mL and an MBC100 of more than 300 µg/mL.
Substance “GRHGGGGGHGGGHGGHGGGGGR (Modified peptide derived from human hornerin (HR 1-18 L-G/Q-G/6S-6G))” displayed an MBC90 of more than 300 µg/mL and an MBC100 of more than 300 µg/mL.
Consider “GRHGSGGGHSSSHGGHGSGSGR (Modified peptide derived from human hornerin (HR 1-18 L-G/Q-G))”, for which the MBC90 was more than 300 µg/mL and the MBC100 was more than 300 µg/mL.
